{
  "source": "patent US10300066B2",
  "about": "“Polyfluorinated compounds acting as bruton tyrosine kinase inhibitors” (ZHEJIANG DTRM BIOPHARMA CO. LTD., priority 2014, dated 2019)",
  "key": {"[1]": {"experiment": "28-day toxicokinetic (TK) study in rats", "type": "in vivo, rat", "settings": "for AUC: rat, in vivo, read-out: AUC (area under the curve)"}, "[2]": {"experiment": "Toxicity and TK studies, 28-day rat and dog", "settings": "28-day rat and dog studies", "text": "Toxicity and toxicokinetic (TK) studies of the compounds can be performed by well known methods."}, "[3]": {"experiment": "28-day toxicokinetic (TK) study in dogs", "type": "in vivo, dog", "settings": "for AUC: dog, in vivo, 15 mg/kg"}, "[4]": {"settings": "100 mg/kg, Study Day 28, Female"}, "[5]": {"settings": "45 mg/kg/day, Study Day 1, Female"}},
  "data": [
    {"smiles": "C=CC(=O)N1CC[C@@H](n2nc(-c3ccc(Oc4c(F)c(F)cc(F)c4F)cc3F)c3c(N)ncnc32)C1", "note": "[Compound 45, 1-((R)-3-(4-amino-3-(2-fluoro-4-(2,3,5,6-tetrafluorophenoxy)phenyl)-1H-pyrazolo[3,4-d]pyrimidin-1-yl)pyrrolidin-1-yl)prop-2-en-1-one]", "values": [
      {"measurement": "AUC compared to ibrutinib", "setting": "[1]", "value": "significantly higher"},
      {"measurement": "Cmax", "setting": "[1]; 40 mg/kg, Study Day 1, Female", "value": 2660, "unit": "ng/mL"},
      {"measurement": "Cmax", "setting": "[1]; 40 mg/kg, Study Day 28, Male", "value": 2090, "unit": "ng/mL"},
      {"measurement": "AUC0-24 h", "setting": "[1]; [4]", "value": 29600, "unit": "ng·h/mL"},
      {"measurement": "Cmax", "setting": "[1]; [4]", "value": 3830, "unit": "ng/mL"},
      {"measurement": "AUC0-24 h", "setting": "[1]; 100 mg/kg, Study Day 28, Male", "value": 30300, "unit": "ng·h/mL"},
      {"measurement": "Cmax", "setting": "[1]; 200 mg/kg, Study Day 28, Male", "value": 4540, "unit": "ng/mL"},
      {"measurement": "AUC", "setting": "[1]; 40 mg/kg, female", "value": 17300, "unit": "ng·h/mL"},
      {"measurement": "AUC", "setting": "[1]; 40 mg/kg, male", "value": 13700, "unit": "ng·h/mL"},
      {"measurement": "Bioavailability compared to ibrutinib", "setting": "[2]", "value": "superior bioavailability"},
      {"measurement": "Drug exposure, Day 1 versus Day 28", "setting": "[2]", "value": "no significant difference"},
      {"measurement": "Drug exposure, male versus female", "setting": "[2]", "value": "no significant difference"},
      {"measurement": "Pharmacokinetics compared to ibrutinib", "setting": "[2]", "value": "excellent pharmacokinetics"},
      {"measurement": "Toxicity compared to ibrutinib", "setting": "[2]", "value": "low toxicity"},
      {"measurement": "AUC compared to ibrutinib", "setting": "[3]", "value": "significantly higher"},
      {"measurement": "AUC0-24 h", "setting": "[3]; [5]", "value": "6220 ± 3000", "unit": "ng·h/mL"},
      {"measurement": "Cmax", "setting": "[3]; [5]", "value": "1220 ± 431", "unit": "ng/mL"},
      {"measurement": "Cmax", "setting": "[3]; 150 mg/kg/day, Study Day 1, Male", "value": "2460 ± 858", "unit": "ng/mL"},
      {"measurement": "AUC", "setting": "[3]; female", "value": 2930, "unit": "ng·h/mL"},
      {"measurement": "AUC", "setting": "[3]; male", "value": 3550, "unit": "ng·h/mL"}
    ]}
  ]
}
